The values that follow come from patent US20260193264A1, “BENZOYPARAZINE PYRAZINES AND THEIR USES” (FOGHORN THERAPEUTICS INC., priority 2022, published 2026).

In assay [1] the target is T1, HiBit-BRG1 fusion protein in stable HeLa cell line expressing HiBit-BRG1 and LgBit (Homo sapiens, UniProt P51532).
T1 construct: expressed in transfected cells
The experiment in a line: HiBiT-BRG1 cell-based degradation assay (Nano-Glo HiBiT, 24 h). Particulars: HeLa HiBit-BRG1/LgBit cells; for Dmax: top dose 30 μM, read-out: BRG1 HiBit Degradation Maximum (%); for DC50: read-out: BRMG1 HiBit Degradation IC50. The method, boiled down:
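Degradation calculated from NanoBiT luminescence relative to DMSO-treated cells (high) and cells given 2 μM known BRM/BRG1 degrader (low). HeLa cells stably expressing HiBiT-BRG1 plus LgBiT were exposed to compound for 24 h before lytic HiBiT detection.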

For assay [2], the target named is T2, HiBiT-BRM fusion protein in stable HeLa cell line (Homo sapiens, UniProt P51531).
T2 construct: expressed in transfected cells
The experiment in a line: HiBiT-BRM cell-based degradation assay (Nano-Glo HiBiT Lytic Detection, 24 h). Particulars: HeLa HiBiT-BRM cells; for DC50: read-out: BRM HiBit Degradation IC50; for BRM HiBit Degradation Maximum (%): top dose 30 μM. More on the design: DC50: scale not given here. The method, boiled down:
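Percent degradation was scaled between DMSO-treated cells and cells given 2 μM of a known BRM/BRG1 degrader. Readout was NanoBiT luminescence after lytic detection. HeLa cells stably expressing HiBiT-BRM were dosed for 24 h, 10 points, 3-fold steps from 30 μM final, in duplicate.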

T1 sequence (P51532 whole entry, the tested form may be a part): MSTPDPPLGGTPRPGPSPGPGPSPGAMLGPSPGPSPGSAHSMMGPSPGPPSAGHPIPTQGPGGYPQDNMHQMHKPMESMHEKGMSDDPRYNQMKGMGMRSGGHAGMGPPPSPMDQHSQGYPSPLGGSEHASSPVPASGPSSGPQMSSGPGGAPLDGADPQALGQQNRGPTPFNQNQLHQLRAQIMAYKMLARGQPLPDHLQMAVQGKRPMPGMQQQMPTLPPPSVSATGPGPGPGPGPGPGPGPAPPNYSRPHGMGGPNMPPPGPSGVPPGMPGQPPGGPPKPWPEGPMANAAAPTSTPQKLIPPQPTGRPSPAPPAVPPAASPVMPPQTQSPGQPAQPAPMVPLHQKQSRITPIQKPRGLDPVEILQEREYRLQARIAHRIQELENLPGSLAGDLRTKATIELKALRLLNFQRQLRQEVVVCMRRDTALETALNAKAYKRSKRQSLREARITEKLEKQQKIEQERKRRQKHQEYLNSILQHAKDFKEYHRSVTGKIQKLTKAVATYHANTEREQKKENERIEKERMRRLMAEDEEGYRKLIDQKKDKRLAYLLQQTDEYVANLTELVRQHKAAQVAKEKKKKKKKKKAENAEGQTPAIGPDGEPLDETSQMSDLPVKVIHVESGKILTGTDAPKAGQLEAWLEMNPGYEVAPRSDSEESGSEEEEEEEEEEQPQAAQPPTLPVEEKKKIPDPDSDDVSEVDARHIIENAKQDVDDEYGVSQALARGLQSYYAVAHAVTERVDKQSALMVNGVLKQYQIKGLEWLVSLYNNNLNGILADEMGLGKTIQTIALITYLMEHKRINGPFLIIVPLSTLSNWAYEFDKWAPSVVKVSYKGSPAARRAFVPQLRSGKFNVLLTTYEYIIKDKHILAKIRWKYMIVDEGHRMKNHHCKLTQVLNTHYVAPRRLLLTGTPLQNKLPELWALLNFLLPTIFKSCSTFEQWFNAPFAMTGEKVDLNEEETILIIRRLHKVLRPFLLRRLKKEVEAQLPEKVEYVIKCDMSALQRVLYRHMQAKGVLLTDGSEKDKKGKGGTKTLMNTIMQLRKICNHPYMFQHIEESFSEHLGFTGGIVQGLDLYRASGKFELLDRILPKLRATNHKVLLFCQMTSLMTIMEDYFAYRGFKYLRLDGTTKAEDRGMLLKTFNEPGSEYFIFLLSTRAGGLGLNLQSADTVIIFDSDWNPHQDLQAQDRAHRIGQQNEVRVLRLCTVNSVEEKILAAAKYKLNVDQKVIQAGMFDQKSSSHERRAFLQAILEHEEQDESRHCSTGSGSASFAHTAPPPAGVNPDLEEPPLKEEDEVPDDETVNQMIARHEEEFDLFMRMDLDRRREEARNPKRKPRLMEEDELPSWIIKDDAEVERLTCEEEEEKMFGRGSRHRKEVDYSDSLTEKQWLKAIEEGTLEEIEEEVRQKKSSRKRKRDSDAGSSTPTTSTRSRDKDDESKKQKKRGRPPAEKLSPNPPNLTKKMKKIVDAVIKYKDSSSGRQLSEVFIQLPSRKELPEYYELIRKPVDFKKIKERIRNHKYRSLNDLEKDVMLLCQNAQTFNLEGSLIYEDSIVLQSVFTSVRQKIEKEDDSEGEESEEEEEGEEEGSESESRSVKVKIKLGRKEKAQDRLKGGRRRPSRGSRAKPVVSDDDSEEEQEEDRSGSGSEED
T2 sequence (P51531 whole entry, the tested form may be a part): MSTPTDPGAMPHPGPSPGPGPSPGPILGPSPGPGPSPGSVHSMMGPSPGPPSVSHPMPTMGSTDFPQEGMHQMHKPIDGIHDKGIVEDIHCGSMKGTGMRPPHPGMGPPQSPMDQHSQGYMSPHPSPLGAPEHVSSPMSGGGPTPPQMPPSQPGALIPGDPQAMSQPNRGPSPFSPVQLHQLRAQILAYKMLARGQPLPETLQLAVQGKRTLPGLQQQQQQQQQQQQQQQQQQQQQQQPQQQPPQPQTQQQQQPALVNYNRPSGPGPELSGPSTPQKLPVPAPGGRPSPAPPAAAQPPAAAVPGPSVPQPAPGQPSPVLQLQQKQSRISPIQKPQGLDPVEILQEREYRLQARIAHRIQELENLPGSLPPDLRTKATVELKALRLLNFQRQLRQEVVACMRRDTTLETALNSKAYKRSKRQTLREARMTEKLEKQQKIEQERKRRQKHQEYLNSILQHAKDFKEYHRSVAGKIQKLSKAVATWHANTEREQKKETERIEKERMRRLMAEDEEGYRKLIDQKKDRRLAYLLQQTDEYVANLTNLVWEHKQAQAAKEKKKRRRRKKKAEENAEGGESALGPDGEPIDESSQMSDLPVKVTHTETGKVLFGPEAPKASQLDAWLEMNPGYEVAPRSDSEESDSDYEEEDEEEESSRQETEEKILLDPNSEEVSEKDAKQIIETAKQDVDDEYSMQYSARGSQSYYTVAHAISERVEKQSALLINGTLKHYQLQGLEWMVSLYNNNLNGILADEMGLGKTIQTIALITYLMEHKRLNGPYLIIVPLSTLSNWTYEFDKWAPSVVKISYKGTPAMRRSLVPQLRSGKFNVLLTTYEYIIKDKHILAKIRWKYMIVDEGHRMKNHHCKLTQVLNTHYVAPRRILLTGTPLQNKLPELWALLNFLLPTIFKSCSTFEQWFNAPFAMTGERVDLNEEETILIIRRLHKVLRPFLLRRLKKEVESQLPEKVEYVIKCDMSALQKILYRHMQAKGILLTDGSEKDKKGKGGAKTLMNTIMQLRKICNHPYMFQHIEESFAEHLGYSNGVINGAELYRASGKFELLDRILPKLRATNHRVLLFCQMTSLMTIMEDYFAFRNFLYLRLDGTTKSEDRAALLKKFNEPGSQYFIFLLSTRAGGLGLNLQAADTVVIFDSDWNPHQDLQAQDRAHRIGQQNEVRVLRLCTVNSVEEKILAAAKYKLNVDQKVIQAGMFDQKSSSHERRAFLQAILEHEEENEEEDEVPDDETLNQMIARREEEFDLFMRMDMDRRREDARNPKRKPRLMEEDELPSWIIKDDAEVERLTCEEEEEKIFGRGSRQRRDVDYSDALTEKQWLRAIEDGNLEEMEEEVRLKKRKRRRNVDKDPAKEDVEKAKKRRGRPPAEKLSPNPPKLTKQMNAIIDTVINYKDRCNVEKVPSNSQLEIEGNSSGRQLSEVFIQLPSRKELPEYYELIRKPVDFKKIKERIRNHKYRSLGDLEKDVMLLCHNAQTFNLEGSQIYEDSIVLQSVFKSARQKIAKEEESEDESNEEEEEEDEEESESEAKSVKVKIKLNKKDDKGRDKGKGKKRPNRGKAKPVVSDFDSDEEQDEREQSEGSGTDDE

As to `Cc1ncsc1-c1ccc([C@H](C)NC(=O)[C@@H]2C[C@@H](O)CN2C(=O)[C@@H](c2cc(N3C[C@H]4CN(c5ccc6cc(-c7ccccc7O)nnc6c5)C[C@H]4C3)no2)C(C)C)cc1` [Compound 131, (2S,4R)-4-hydroxy-1-((R)-2-(3-((3aR,6aS)-5-(3-(2-hydroxyphenyl)cinnolin-7-yl)hexahydropyrrolo[3,4-c]pyrrol-2(1H)-yl)isoxazol-5-yl)-3-methylbutanoyl)-N-((S)-1-(4-(4-methylthiazol-5-yl)phenyl)ethyl)pyrrolidine-2-carboxamide], the Dmax in assay [1] is more than 50%. In assay [2], the DC50 was less than 10 nM and the “BRM HiBit Degradation Maximum (%)” value is “A (“A” indicates maximum degradation ≥75%)”.

As for `Cc1ncsc1-c1ccc([C@H](C)NC(=O)[C@@H]2C[C@@H](O)CN2C(=O)[C@@H](c2cc(N3CC4(C3)CN(c3cc5nnc(-c6ccccc6O)cc5cc3Cl)C4)no2)C(C)C)cc1` [Compound 157, (2S,4R)-1-((R)-2-(3-(6-(6-chloro-3-(2-hydroxyphenyl)cinnolin-7-yl)-2,6-diazaspiro[3.3]heptan-2-yl)isoxazol-5-yl)-3-methylbutanoyl)-4-hydroxy-N-((S)-1-(4-(4-methylthiazol-5-yl)phenyl)ethyl)pyrrolidine-2-carboxamide], in assay [1], the DC50 is less than 10 nM and the Dmax is more than 50%. Also, in assay [2], the DC50 is less than 10 nM and the “BRM HiBit Degradation Maximum (%)” value is listed as “A (“A” indicates maximum degradation ≥75%)”.

Regarding `Cc1ncsc1-c1ccc([C@H](C)NC(=O)[C@@H]2C[C@@H](O)CN2C(=O)[C@H](C(C)C)n2cc(-c3cc4cc(-c5ccccc5O)nnc4cc3C#N)nn2)cc1` [Compound 170, (2S,4R)-1-[(2S)-2-{4-[7-cyano-3-(2-hydroxyphenyl)cinnolin-6-yl]-1,2,3-triazol-1-yl}-3-methylbutanoyl]-4-hydroxy-N-[(1S)-1-[4-(4-methyl-1,3-thiazol-5-yl)phenyl]ethyl]pyrrolidine-2-carboxamide], in assay [1], the Dmax is less than 50%. In assay [2], the DC50 was more than 10 nM and the “BRM HiBit Degradation Maximum (%)” value is given as “B (“B” indicates maximum degradation ≥50%)”.

In the case of `Cc1ncsc1-c1ccc(CNC(=O)[C@@H]2C[C@@H](O)CN2C(=O)C(c2cc(N3CC4(CN(c5ccc6cc(-c7ccccc7O)nnc6c5)C4)C3)no2)C(C)C)cc1` (stereo partly drawn) [Compound 117, (2S,4R)-4-hydroxy-1-(2-(3-(6-(3-(2-hydroxyphenyl)cinnolin-7-yl)-2,6-diazaspiro[3.3]heptan-2-yl)isoxazol-5-yl)-3-methylbutanoyl)-N-(4-(4-methylthiazol-5-yl)benzyl)pyrrolidine-2-carboxamide], the Dmax in assay [1] is less than 50%. Also, in assay [2], the DC50 is less than 10 nM and the “BRM HiBit Degradation Maximum (%)” value is “A (“A” indicates maximum degradation ≥75%)”.

For `Cc1ncsc1-c1ccc([C@H](C)NC(=O)[C@@H]2C[C@@H](O)CN2C(=O)C(C(C)C)n2cc(N3CCC4(CCCN4c4ccc5cc(-c6ccccc6O)nnc5c4)C3)nn2)cc1` (stereo partly drawn) [Compound 262, (2S,4R)-4-hydroxy-1-(2-(4-(1-(3-(2-hydroxyphenyl)cinnolin-7-yl)-1,7-diazaspiro[4.4]nonan-7-yl)-1H-1,2,3-triazol-1-yl)-3-methylbutanoyl)-N-((S)-1-(4-(4-methylthiazol-5-yl)phenyl)ethyl)pyrrolidine-2-carboxamide], in assay [1], the DC50 is more than 100 nM and the Dmax is more than 50%. Further, in assay [2], the DC50 was more than 100 nM and the “BRM HiBit Degradation Maximum (%)” value is “A (“A” indicates maximum degradation ≥75%)”.

On to `C#Cc1ccc([C@H](C)NC(=O)[C@@H]2C[C@@H](O)CN2C(=O)[C@@H](c2cc(N3CC4(CN(c5ccc6cc(-c7ccccc7O)nnc6c5)C4)C3)no2)C(C)C)cc1` [Compound 274, (2S,4R)-N-((S)-1-(4-ethynylphenyl)ethyl)-4-hydroxy-1-((R)-2-(3-(6-(3-(2-hydroxyphenyl)cinnolin-7-yl)-2,6-diazaspiro[3.3]heptan-2-yl)isoxazol-5-yl)-3-methylbutanoyl)pyrrolidine-2-carboxamide], for which, in assay [1], the Dmax is less than 50%. In assay [2], the DC50 is less than 10 nM and the “BRM HiBit Degradation Maximum (%)” value was “A (“A” indicates maximum degradation ≥75%)”.

As to `Cc1ncsc1-c1ccc([C@H](C)NC(=O)[C@@H]2C[C@@H](O)CN2C(=O)C(C(C)C)n2cc(N3CCC4(CC3)CCN4c3ccc4cc(-c5ccccc5O)nnc4c3)nn2)cc1` (stereo partly drawn) [Compound 234, (2S,4R)-4-hydroxy-1-(2-(4-(1-(3-(2-hydroxyphenyl)cinnolin-7-yl)-1,7-diazaspiro[3.5]nonan-7-yl)-1H-1,2,3-triazol-1-yl)-3-methylbutanoyl)-N-((S)-1-(4-(4-methylthiazol-5-yl)phenyl)ethyl)pyrrolidine-2-carboxamide], in assay [1], the DC50 was more than 10 nM and the Dmax was more than 50%. In assay [2], the DC50 was less than 10 nM and the “BRM HiBit Degradation Maximum (%)” value is given as “A (“A” indicates maximum degradation ≥75%)”.

With `Cc1ncsc1-c1ccc([C@H](C)NC(=O)[C@@H]2C[C@@H](O)CN2C(=O)[C@@H](c2cc(N3C[C@]4(C)CN(c5ccc6nnc(-c7ccccc7O)cc6c5)C[C@]4(C)C3)no2)C(C)C)cc1` [Compound 188, (2S,4R)-4-hydroxy-1-((R)-2-(3-((3aR,6aS)-5-(3-(2-hydroxyphenyl)cinnolin-6-yl)-3a,6a-dimethylhexahydropyrrolo[3,4-c]pyrrol-2(1H)-yl)isoxazol-5-yl)-3-methylbutanoyl)-N-((S)-1-(4-(4-methylthiazol-5-yl)phenyl)ethyl)pyrrolidine-2-carboxamide], in assay [1], the DC50 is more than 10 nM and the Dmax is more than 75%. Also, in assay [2], the DC50 was more than 10 nM and the “BRM HiBit Degradation Maximum (%)” value is given as “A (“A” indicates maximum degradation ≥75%)”.

For the compound `Cc1ncsc1-c1ccc([C@H](C)NC(=O)[C@@H]2C[C@@H](O)CN2C(=O)[C@H](c2cc(-c3cnc(N4CC(c5ccc6nnc(-c7ccccc7O)cc6c5Cl)C4)nc3)no2)C(C)C)cc1` [Compound 43], the Dmax in assay [1] was less than 50%. Further, in assay [2], the DC50 is more than 100 nM and the “BRM HiBit Degradation Maximum (%)” value was “A (“A” indicates maximum degradation ≥75%)”.

`Cc1ncsc1-c1ccc([C@H](C)NC(=O)[C@@H]2C[C@@H](O)CN2C(=O)[C@@H](c2cc(OCCN3CC(c4ccc5cc(-c6ccccc6O)nnc5c4)C3)no2)C(C)C)cc1` [Compound 8, (2S,4R)-4-hydroxy-1-[(2R)-2-[3-(2-{3-[3-(2-hydroxyphenyl)cinnolin-7-yl]azetidin-1-yl}ethoxy)-1,2-oxazol-5-yl]-3-methylbutanoyl]-N-[(1S)-1-[4-(4-methyl-1,3-thiazol-5-yl)phenyl]ethyl]pyrrolidine-2-carboxamide]: the Dmax in assay [1] is more than 50%. Besides, in assay [2], the DC50 is less than 10 nM and the “BRM HiBit Degradation Maximum (%)” value is recorded as “A (“A” indicates maximum degradation ≥75%)”.

For the compound `Cc1ncsc1-c1ccc([C@H](C)NC(=O)[C@@H]2C[C@@H](O)CN2C(=O)C(C(C)C)n2cc(N3CCC4(CCN4c4ccc5cc(-c6ccccc6O)nnc5c4)C3)nn2)cc1` (stereo partly drawn) [Compound 264, (2S,4R)-4-hydroxy-1-(2-(4-(1-(3-(2-hydroxyphenyl)cinnolin-7-yl)-1,6-diazaspiro[3.4]octan-6-yl)-1H-1,2,3-triazol-1-yl)-3-methylbutanoyl)-N-((S)-1-(4-(4-methylthiazol-5-yl)phenyl)ethyl)pyrrolidine-2-carboxamide], in assay [1], the Dmax is less than 50%. For the same compound, in assay [2], the DC50 was more than 10 nM and the “BRM HiBit Degradation Maximum (%)” value is “A (“A” indicates maximum degradation ≥75%)”.

For `Cc1ncsc1-c1ccc([C@H](C)NC(=O)[C@@H]2C[C@@H](O)CN2C(=O)C(C(C)C)n2cc(N3C[C@H]4CN(c5ccc6cc(-c7ccccc7O)nnc6c5)C[C@H]4C3)nn2)cc1` (stereo partly drawn) [Compound 213, (2S,4R)-4-hydroxy-1-(2-(4-((3aR,6aS)-5-(3-(2-hydroxyphenyl)cinnolin-7-yl)hexahydropyrrolo[3,4-c]pyrrol-2(1H)-yl)-1H-1,2,3-triazol-1-yl)-3-methylbutanoyl)-N-((S)-1-(4-(4-methylthiazol-5-yl)phenyl)ethyl)pyrrolidine-2-carboxamide], the Dmax in assay [1] is less than 50%. In assay [2], the DC50 was less than 10 nM and the “BRM HiBit Degradation Maximum (%)” value is “A (“A” indicates maximum degradation ≥75%)”.

Consider `Cc1ncsc1-c1ccc([C@H](C)NC(=O)[C@@H]2C[C@@H](O)CN2C(=O)[C@@H](c2cc(N3CC4(C3)CN(c3cc5nnc(-c6ccccc6O)cc5cc3C(F)F)C4)no2)C(C)C)cc1` [Compound 168, (2S,4R)-1-((R)-2-(3-(6-(6-(difluoromethyl)-3-(2-hydroxyphenyl)cinnolin-7-yl)-2,6-diazaspiro[3.3]heptan-2-yl)isoxazol-5-yl)-3-methylbutanoyl)-4-hydroxy-N-((S)-1-(4-(4-methylthiazol-5-yl)phenyl)ethyl)pyrrolidine-2-carboxamide], for which, in assay [1], the DC50 is less than 10 nM and the Dmax was more than 50%. In addition, in assay [2], the DC50 is less than 10 nM and the “BRM HiBit Degradation Maximum (%)” value is recorded as “A (“A” indicates maximum degradation ≥75%)”.

With `Cc1ncsc1-c1ccc([C@H](C)NC(=O)[C@@H]2C[C@@H](O)CN2C(=O)[C@@H](c2cc(N3CCC4(CC3)CC(c3ccc5cc(-c6cc(F)cc(F)c6O)nnc5c3)C4)no2)C(C)C)cc1` [Compound 82, (2S,4R)-1-((R)-2-(3-(2-(3-(3,5-difluoro-2-hydroxyphenyl)cinnolin-7-yl)-7-azaspiro[3.5]nonan-7-yl)isoxazol-5-yl)-3-methylbutanoyl)-4-hydroxy-N-((S)-1-(4-(4-methylthiazol-5-yl)phenyl)ethyl)pyrrolidine-2-carboxamide], in assay [1], the Dmax was less than 50%. In assay [2], the DC50 was less than 10 nM and the “BRM HiBit Degradation Maximum (%)” value is “A (“A” indicates maximum degradation ≥75%)”.
